In patent US20240360178A1, “MACROCYCLIC IMMUNOMODULATORS” (Bristol-Myers Squibb Company, priority 2021, published 2024):
Positions of bridges follow the written chain, without caps; N, C: chain ends. Non-standard residues stand in square brackets, D forms with d. Residues, ends and D or L forms follow the SMILES beside them. Bip = N[C@@H](Cc1ccc(-c2ccccc2)cc1)C(=O)O; NMeF = CN[C@@H](Cc1ccccc1)C(=O)O; Phg = N[C@H](C(=O)O)c1ccccc1; NMeA = CN[C@@H](C)C(=O)O; Orn = NCCC[C@H](N)C(=O)O; Dab = NCC[C@H](N)C(=O)O; Nva = CCC[C@H](N)C(=O)O; Abu = CC[C@H](N)C(=O)O; Dap = NC[C@H](N)C(=O)O; Aib = CC(C)(N)C(=O)O

Target: T1, human PD-1 (Jurkat-PD-1 cells) / PE-labeled human PD-L1-Ig (Homo sapiens, UniProt Q15116)
T1 construct: expressed in transfected cells; host or cells: Jurkat cell line over-expressing human PD-1
T1 sequence (Q15116 25-288): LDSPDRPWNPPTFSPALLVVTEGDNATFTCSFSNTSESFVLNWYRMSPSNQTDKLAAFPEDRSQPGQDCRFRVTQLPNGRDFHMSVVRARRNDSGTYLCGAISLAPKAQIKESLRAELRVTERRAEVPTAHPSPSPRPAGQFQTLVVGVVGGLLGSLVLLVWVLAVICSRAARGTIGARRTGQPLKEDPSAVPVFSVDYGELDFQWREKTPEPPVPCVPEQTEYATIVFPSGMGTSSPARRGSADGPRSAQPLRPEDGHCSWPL
Assay: Jurkat-PD-1 Cell Binding High-Content Screening Assay (CBA); Jurkat hPD1-PDL1 assay
Conditions: Jurkat cell line over-expressing human PD-1; PE-labeled PD-L1-Ig 20 nM final; compound incubated 2 hours at 37° C.; read-out: Jurkat HPD1-PDL1 IC50
Summary of the method: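 Cell binding by imaging: Jurkat line stably over-expressing human PD-1, compound pre-exposure 2 h at 37° C, PE-conjugated PD-L1-Ig 20 nM final, medium DMEM containing 10% FCS.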

Row | Structure (SMILES) | IC50 [nM]
1 | CC(C)C[C@@H]1NC(=O)[C@H](CC(C)C)NC(=O)[C@H](CCCNC(=N)N)NC(=O)[C@H](Cc2ccccc2)N(C)C(=O)[C@H](C)N(C)C(=O)[C@H](CCCNC(=N)N)NC(=O)[C@H](Cc2ccc(-c3ccccc3)cc2)NC(=O)[C@H](C(C)C)NC(=O)[C@H](Cc2c[nH]c3ccccc23)NC(=O)[C@H](CC(=O)O)NC(=O)[C@H](Cc2ccc(O)cc2)NC(=O)[C@H](Cc2ccccc2)NC(=O)CSC[C@@H](C(=O)NCC(N)=O)NC(=O)[C@H](CO)NC1=O [Example 1325] ({CH2CO}-FYDWV[Bip]R[NMeA][NMeF]RLLSCG-NH2; thioether N-14) | 590
2 | CC(C)C[C@@H]1NC(=O)[C@H](CCN)NC(=O)[C@H](Cc2ccccc2)N(C)C(=O)[C@H](C)N(C)C(=O)[C@H](CCCNC(=N)N)NC(=O)[C@H](Cc2ccc(-c3ccccc3)cc2)NC(=O)[C@H](C(C)C)NC(=O)[C@H](Cc2c[nH]c3ccccc23)NC(=O)[C@H](CC(=O)O)NC(=O)[C@H](Cc2ccc(O)cc2)NC(=O)[C@H](CCC(N)=O)NC(=O)CSC[C@@H](C(=O)N[C@@H](C)C(N)=O)NC(=O)[C@H]([C@@H](C)O)NC(=O)[C@H](C(C)C)NC1=O [Example 1326] ({CH2CO}-QYDWV[Bip]R[NMeA][NMeF][Dab]LVTCA-NH2; thioether N-14) | 150
3 | CC(C)C[C@@H]1NC(=O)[C@H](Cc2c[nH]c3ccccc23)NC(=O)[C@H](CC(=O)O)NC(=O)[C@H](Cc2ccc(O)cc2)NC(=O)[C@H](Cc2ccccc2)NC(=O)CSC[C@@H](C(=O)NCC(N)=O)NC(=O)[C@H](CO)NC(=O)[C@H](C(C)C)NC(=O)[C@H](CC(C)C)NC(=O)[C@H](CCCNC(=N)N)NC(=O)[C@H](Cc2ccccc2)N(C)C(=O)[C@H](C)N(C)C(=O)[C@H](CCCNC(=N)N)NC(=O)[C@H](Cc2ccc(-c3ccccc3)cc2)NC1=O [Example 1327] ({CH2CO}-FYDWL[Bip]R[NMeA][NMeF]RLVSCG-NH2; thioether N-14) | 120
4 | CC(C)C[C@@H]1NC(=O)[C@H](CCCNC(=N)N)NC(=O)[C@H](Cc2ccccc2)N(C)C(=O)[C@H](C)N(C)C(=O)[C@H](CCCNC(=N)N)NC(=O)[C@H](Cc2ccc(-c3ccccc3)cc2)NC(=O)[C@H](C(C)C)NC(=O)[C@H](Cc2c[nH]c3ccccc23)NC(=O)[C@H](CC(=O)O)NC(=O)[C@H](Cc2ccc(O)cc2)NC(=O)[C@H](Cc2ccccc2)NC(=O)CSC[C@@H](C(=O)NCC(N)=O)NC(=O)[C@H](CC(=O)O)NC(=O)[C@H](C(C)C)NC1=O [Example 1333] ({CH2CO}-FYDWV[Bip]R[NMeA][NMeF]RLVDCG-NH2; thioether N-14) | 680
5 | CC(C)C[C@@H]1NC(=O)[C@H](CCCNC(=N)N)NC(=O)[C@H](Cc2ccccc2)N(C)C(=O)[C@H](C)N(C)C(=O)[C@H](CCCNC(=N)N)NC(=O)[C@H](Cc2ccc(-c3ccccc3)cc2)NC(=O)[C@H](c2ccccc2)NC(=O)[C@H](Cc2c[nH]c3ccccc23)NC(=O)[C@H](CC(=O)O)NC(=O)[C@H](Cc2ccc(O)cc2)NC(=O)[C@H](Cc2ccccc2)NC(=O)CSC[C@@H](C(=O)NCC(N)=O)NC(=O)[C@H](CO)NC(=O)[C@H](C(C)C)NC1=O [Example 1334] ({CH2CO}-FYDW[Phg][Bip]R[NMeA][NMeF]RLVSCG-NH2; thioether N-14) | 430
6 | CCC[C@@H]1NC(=O)[C@H](Cc2c[nH]c3ccccc23)NC(=O)[C@H](CC(=O)O)NC(=O)[C@H](Cc2ccc(O)cc2)NC(=O)[C@H](Cc2ccccc2)NC(=O)CSC[C@@H](C(=O)NCC(N)=O)NC(=O)[C@H](CO)NC(=O)[C@H](C(C)C)NC(=O)[C@H](CC(C)C)NC(=O)[C@H](CCCNC(=N)N)NC(=O)[C@H](Cc2ccccc2)N(C)C(=O)[C@H](C)N(C)C(=O)[C@H](CCCNC(=N)N)NC(=O)[C@H](Cc2ccc(-c3ccccc3)cc2)NC1=O [Example 1335] ({CH2CO}-FYDW[Nva][Bip]R[NMeA][NMeF]RLVSCG-NH2; thioether N-14) | 140
7 | CC[C@@H]1NC(=O)[C@H](Cc2c[nH]c3ccccc23)NC(=O)[C@H](CC(=O)O)NC(=O)[C@H](Cc2ccc(O)cc2)NC(=O)[C@H](Cc2ccccc2)NC(=O)CSC[C@@H](C(=O)NCC(N)=O)NC(=O)[C@H](CO)NC(=O)[C@H](C(C)C)NC(=O)[C@H](CC(C)C)NC(=O)[C@H](CCCNC(=N)N)NC(=O)[C@H](Cc2ccccc2)N(C)C(=O)[C@H](C)N(C)C(=O)[C@H](CCCNC(=N)N)NC(=O)[C@H](Cc2ccc(-c3ccccc3)cc2)NC1=O [Example 1336] ({CH2CO}-FYDW[Abu][Bip]R[NMeA][NMeF]RLVSCG-NH2; thioether N-14) | 410
8 | CC(C)C[C@@H]1NC(=O)[C@H](CCCNC(=N)N)NC(=O)[C@H](Cc2ccccc2)N(C)C(=O)[C@H](C)N(C)C(=O)[C@H](CCCNC(=N)N)NC(=O)[C@H](Cc2ccc(-c3ccccc3)cc2)NC(=O)[C@H](C(C)C)NC(=O)[C@H](Cc2c[nH]c3ccccc23)NC(=O)[C@H](CC(=O)O)NC(=O)[C@H](Cc2ccc(O)cc2)NC(=O)[C@H](Cc2ccccc2)NC(=O)CSC[C@@H](C(=O)NCC(N)=O)NC(=O)[C@H](CCCN)NC(=O)[C@H](C(C)C)NC1=O [Example 1338] ({CH2CO}-FYDWV[Bip]R[NMeA][NMeF]RLV[Orn]CG-NH2; thioether N-14) | 110
9 | CC(C)C[C@@H]1NC(=O)[C@H](CCN)NC(=O)[C@H](Cc2ccccc2)N(C)C(=O)[C@H](C)N(C)C(=O)[C@H](CCCN)NC(=O)[C@H](Cc2ccc(-c3ccccc3)cc2)NC(=O)[C@H](C(C)C)NC(=O)[C@H](Cc2c[nH]c3ccccc23)NC(=O)[C@H](CC(=O)O)NC(=O)[C@H](Cc2ccc(O)cc2)NC(=O)[C@H](Cc2ccccc2)NC(=O)CSC[C@@H](C(=O)N[C@@H](C)C(N)=O)NC(=O)[C@H]([C@@H](C)O)NC(=O)[C@H](C(C)C)NC1=O [Example 1341] ({CH2CO}-FYDWV[Bip][Orn][NMeA][NMeF][Dab]LVTCA-NH2; thioether N-14) | 200

Continued, values first:

Row | IC50 [nM] | Structure (SMILES)
10 | 480 | CC(C)C[C@@H]1NC(=O)[C@H](CCCNC(=N)N)NC(=O)[C@H](Cc2ccccc2)N(C)C(=O)[C@H](C)N(C)C(=O)[C@H](CCCNC(=N)N)NC(=O)[C@H](Cc2ccc(-c3ccccc3)cc2)NC(=O)[C@H](C(C)C)NC(=O)[C@H](Cc2c[nH]c3ccccc23)NC(=O)[C@H](CC(=O)O)NC(=O)[C@H](Cc2ccc(O)cc2)NC(=O)[C@H](Cc2ccccc2)NC(=O)CSC[C@@H](C(=O)NC(C)(C)C(N)=O)NC(=O)[C@H](CO)NC(=O)[C@H](C(C)C)NC1=O [Example 1328] ({CH2CO}-FYDWV[Bip]R[NMeA][NMeF]RLVSC[Aib]-NH2; thioether N-14)
11 | 260 | CCC[C@H](NC(=O)[C@@H]1CSCC(=O)N[C@@H](Cc2ccccc2)C(=O)N[C@@H](Cc2ccc(O)cc2)C(=O)N[C@@H](CC(=O)O)C(=O)N[C@@H](Cc2c[nH]c3ccccc23)C(=O)N[C@@H](C(C)C)C(=O)N[C@@H](Cc2ccc(-c3ccccc3)cc2)C(=O)N[C@@H](CCCNC(=N)N)C(=O)N(C)[C@@H](C)C(=O)N(C)[C@@H](Cc2ccccc2)C(=O)N[C@@H](CCCNC(=N)N)C(=O)N[C@@H](CC(C)C)C(=O)N[C@@H](C(C)C)C(=O)N[C@@H](CO)C(=O)N1)C(N)=O [Example 1329] ({CH2CO}-FYDWV[Bip]R[NMeA][NMeF]RLVSC[Nva]-NH2; thioether N-14)
12 | 390 | CC(C)C[C@@H]1NC(=O)[C@H](CCCNC(=N)N)NC(=O)[C@H](Cc2ccccc2)N(C)C(=O)[C@H](C)N(C)C(=O)[C@H](CCCNC(=N)N)NC(=O)[C@H](Cc2ccc(-c3ccccc3)cc2)NC(=O)[C@H](C(C)C)NC(=O)[C@H](Cc2c[nH]c3ccccc23)NC(=O)[C@H](CC(=O)O)NC(=O)[C@H](Cc2ccc(O)cc2)NC(=O)[C@H](Cc2ccccc2)NC(=O)CSC[C@@H](C(=O)NCC(N)=O)NC(=O)[C@H](CN)NC(=O)[C@H](C(C)C)NC1=O [Example 1330] ({CH2CO}-FYDWV[Bip]R[NMeA][NMeF]RLV[Dap]CG-NH2; thioether N-14)
13 | 80 | CC(C)C[C@@H]1NC(=O)[C@H](CCCNC(=N)N)NC(=O)[C@H](Cc2ccccc2)N(C)C(=O)[C@H](C)N(C)C(=O)[C@H](CCCNC(=N)N)NC(=O)[C@H](Cc2ccc(-c3ccccc3)cc2)NC(=O)[C@H](C(C)C)NC(=O)[C@H](Cc2c[nH]c3ccccc23)NC(=O)[C@H](CC(=O)O)NC(=O)[C@H](Cc2ccc(O)cc2)NC(=O)[C@H](Cc2ccccc2)NC(=O)CSC[C@@H](C(=O)N[C@H](C)C(N)=O)NC(=O)[C@H](CO)NC(=O)[C@H](C(C)C)NC1=O [Example 1331] ({CH2CO}-FYDWV[Bip]R[NMeA][NMeF]RLVSC[dA]-NH2; thioether N-14)
14 | 790 | CC(C)C[C@@H]1NC(=O)[C@H](CCCNC(=N)N)NC(=O)[C@H](Cc2ccccc2)N(C)C(=O)[C@H](C)N(C)C(=O)[C@H](CCCNC(=N)N)NC(=O)[C@H](Cc2ccc(-c3ccccc3)cc2)NC(=O)[C@H](C(C)C)NC(=O)[C@H](Cc2c[nH]c3ccccc23)NC(=O)[C@H](CC(=O)O)NC(=O)[C@H](Cc2ccc(O)cc2)NC(=O)[C@H](Cc2ccccc2)NC(=O)CSC[C@@H](C(=O)NCC(N)=O)NC(=O)[C@H](CCN)NC(=O)[C@H](C(C)C)NC1=O [Example 1332] ({CH2CO}-FYDWV[Bip]R[NMeA][NMeF]RLV[Dab]CG-NH2; thioether N-14)
15 | 870 | CC[C@H](NC(=O)[C@@H]1CSCC(=O)N[C@@H](Cc2ccccc2)C(=O)N[C@@H](Cc2ccc(O)cc2)C(=O)N[C@@H](CC(=O)O)C(=O)N[C@@H](Cc2c[nH]c3ccccc23)C(=O)N[C@@H](C(C)C)C(=O)N[C@@H](Cc2ccc(-c3ccccc3)cc2)C(=O)N[C@@H](CCCNC(=N)N)C(=O)N(C)[C@@H](C)C(=O)N(C)[C@@H](Cc2ccccc2)C(=O)N[C@@H](CCCNC(=N)N)C(=O)N[C@@H](CC(C)C)C(=O)N[C@@H](C(C)C)C(=O)N[C@@H](CO)C(=O)N1)C(N)=O [Example 1337] ({CH2CO}-FYDWV[Bip]R[NMeA][NMeF]RLVSC[Abu]-NH2; thioether N-14)
